Laboratory results: US5932574A, “Quinazoline derivatives” (Zeneca Limited, priority 1995, dated 1999)
pIC50: −log10 of the molar value.

How the values were obtained:
[1] = system: human naso-pharyngeal cancer cell line KB; assay: Inhibition of EGF-stimulated growth of human naso-pharyngeal cancer cell line KB, Test (b); type: cell-based; conditions: 72 h, EGF (10 ng/ml), 3 days, approximate
Procedure: (b) An in vitro assay which determines the ability of a test compound to inhibit the EGF-stimulated growth of the human naso-pharyngeal cancer cell line KB. […] Cell growth was determined after incubation for 3 days by the extent of metabolism of MTT tetrazolium dye to furnish a bluish colour. Cell growth was then determined in the presence of EGF (10 ng/ml) or in the presence of EGF (10 ng/ml) and a test compound at a range of concentrations. An IC50 value could then be calculated.

[2] = system: human vulval epidermoid carcinoma cell line A-431; assay: Inhibition of growth of A-431 xenografts in athymic nude mice, Test (c); type: in vivo, human xenograft in athymic nude mice (strain ONU:Alpk); conditions: daily dose of 50 mg/kg, usually oral, relative to untreated controls
Procedure: (c) An in-vivo assay in a group of athymic nude mice (strain ONU:Alpk) which determines the ability of a test compound (usually administered orally as a ball-milled suspension in 0.5% polysorbate) to inhibit the growth of xenografts of the human vulval epidermoid carcinoma cell line A-431. A-431 cells were maintained in culture in DMEM supplemented with 5% FCS and 2 mM glutamine. Freshly cultured cells were harvested by trypsinization and injected subcutaneously (10 million cells/0.1 ml/mouse) into both flanks of a number of donor nude mice. When sufficient tumour material was available (after approximately 9 to 14 days), fragments of tumour tissue were transplanted in the flanks of recipient nude mice (test day 0). Generally, on the seventh day after transplantation (test day 7) groups of 7 to 10 mice with similar-sized tumours were selected and dosing of the test compound was commenced. Once daily dosing of test compound was continued for a total of 13 days (test days 7 to 19 inclusive). In some studies the dosing of the test compound was continued beyond test day 19, for example to test day 26. In each case, on the following test day the animals were killed and the final tumour volume was calculated from measurements of the length and width of the tumours. Results were calculated as a percentage inhibition of tumour volume relative to untreated controls.

[3] = target: T1, EGF receptor tyrosine kinase (Homo sapiens, UniProt P00533); assay: Inhibition of EGF receptor tyrosine kinase in vitro, Test (a); type: biochemical; conditions: approximate
T1 construct: Receptor tyrosine kinase was obtained in partially purified form from A-431 cells (derived from human vulval carcinoma); endogenous in cells; host or cells: A-431 cells (Triton X-100 solubilised membrane fraction)
Procedure: (a) An in vitro assay which determines the ability of a test compound to inhibit the enzyme EGF receptor tyrosine kinase. Receptor tyrosine kinase was obtained in partially purified form from A-431 cells (derived from human vulval carcinoma) by the procedures described below which are related to those described by Carpenter et al., J. Biol. Chem., 1979, 254, 4884, Cohen et al., J. Biol. Chem., 1982, 257, 1523 and by Braun et al., J. Biol. Chem., 1984, 259, 2051.
A-431 cells were grown to confluence using Dulbecco's modified Eagle's medium (DMEM) containing 5% fetal calf serum (FCS). The obtained cells were homogenised in a hypotonic borate/EDTA buffer at pH 10.1. The homogenate was centrifuged at 400 g for 10 minutes at 0-4° C. The supernatant was centrifuged at 25,000 g for 30 minutes at 0-4° C. […]
The test compound/EGF mixture solution (5 μl) was added to the test enzyme solution (10 μl) and the mixture was incubated at 0-4° C. for 30 minutes. […] Radioactivity present in the filter paper was measured using a liquid scintillation counter (Sequence A). […]
Receptor tyrosine kinase inhibition was calculated as follows: [formula]
The extent of inhibition was then determined at a range of concentrations of test compound to give an IC50 value.

[4] = system: human mammary carcinoma which expresses EGF receptor tyrosine kinase; conditions: in words; athymic nude mice; Toi et al., 1990; cited from earlier work
[5] = system: another carcinoma which does not express EGF receptor tyrosine kinase; conditions: in words; Toi et al., 1990; cited from earlier work

T1 sequence (P00533 25-1210): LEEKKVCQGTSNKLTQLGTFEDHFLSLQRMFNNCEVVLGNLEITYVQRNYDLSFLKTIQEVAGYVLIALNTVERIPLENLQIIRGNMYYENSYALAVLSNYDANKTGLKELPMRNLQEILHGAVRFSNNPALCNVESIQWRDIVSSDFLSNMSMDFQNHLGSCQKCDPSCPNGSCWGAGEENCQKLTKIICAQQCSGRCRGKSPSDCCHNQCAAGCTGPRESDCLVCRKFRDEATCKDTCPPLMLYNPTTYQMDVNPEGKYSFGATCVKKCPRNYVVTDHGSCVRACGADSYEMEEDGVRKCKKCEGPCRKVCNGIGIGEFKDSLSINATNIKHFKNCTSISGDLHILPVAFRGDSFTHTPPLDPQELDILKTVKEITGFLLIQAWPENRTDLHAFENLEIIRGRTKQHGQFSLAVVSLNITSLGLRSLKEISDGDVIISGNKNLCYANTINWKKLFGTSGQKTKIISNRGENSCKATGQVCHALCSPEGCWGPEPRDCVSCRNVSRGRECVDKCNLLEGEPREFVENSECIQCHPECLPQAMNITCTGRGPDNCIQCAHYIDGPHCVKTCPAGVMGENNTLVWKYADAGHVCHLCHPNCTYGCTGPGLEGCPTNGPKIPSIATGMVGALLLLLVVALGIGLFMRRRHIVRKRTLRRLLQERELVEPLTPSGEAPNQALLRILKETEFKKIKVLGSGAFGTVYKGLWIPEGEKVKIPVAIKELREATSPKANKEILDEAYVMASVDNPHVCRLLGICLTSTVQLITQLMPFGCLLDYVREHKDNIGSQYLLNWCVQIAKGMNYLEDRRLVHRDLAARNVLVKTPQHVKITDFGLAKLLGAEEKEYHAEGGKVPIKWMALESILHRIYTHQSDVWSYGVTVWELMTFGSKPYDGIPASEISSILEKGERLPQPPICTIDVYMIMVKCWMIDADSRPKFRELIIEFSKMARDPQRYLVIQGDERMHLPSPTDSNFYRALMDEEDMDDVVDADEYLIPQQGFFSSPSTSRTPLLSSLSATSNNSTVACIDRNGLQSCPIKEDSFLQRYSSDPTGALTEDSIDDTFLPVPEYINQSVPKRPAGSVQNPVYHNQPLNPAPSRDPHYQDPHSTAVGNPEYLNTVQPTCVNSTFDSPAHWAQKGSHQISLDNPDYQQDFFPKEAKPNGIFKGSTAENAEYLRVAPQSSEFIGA

Row | Compound | pIC50 [1] | inhibition of tumour volume [2] | pIC50 [3] | growth of transplanted human mammary carcinoma [4] | growth of carcinoma not expressing EGF receptor tyrosine kinase [5]
1 | Fc1ccc(Nc2ncnc3ccc(OCCCN4CCOCC4)cc23)cc1F [4-(3',4'-difluoroanilino)-6-(3-morpholinopropoxy)quinazoline] | ~5.92 | greater than 50% | – | – | –
2 | CCN(CC)CCCOc1ccc2ncnc(Nc3ccc(F)c(Cl)c3)c2c1 [4-(3'-chloro-4'-fluoroanilino)-6-(3-diethylaminopropoxy)quinazoline] | ~7.00 | greater than 50% | ~8.52 | – | –
3 | O=CN/C=C/c1cc(O)ccc1O [erbstatin] | – | – | – | specifically attenuates the growth | without effect on the growth
